Source: ChEMBL document CHEMBL6109155, “Discovery of Phenylacylpiperidine as Novel sEH Inhibitors through Scaffold Hopping of Natural Stilbene” (J Med Chem, 2025)
The source made the active and inactive calls. No cut-off for these calls is given here.

How the values were obtained:
Mus musculus [1] = experiment: Anti-inflammatory activity in BALB/c mouse model of carrageenan-induced paw edema assessed as inhibition of paw swelling at 20 mg/kg, po measured for 4 hrs relative to control; format: functional
Mus musculus [2] = experiment: Anti-inflammatory activity in BALB/c mouse model of carrageenan-induced paw edema assessed as inhibition of paw swelling at 20 mg/kg, po measured for 0.5 hrs relative to control; format: functional; details: Mus musculus, BALB/c
[3] = target: T1, Bifunctional epoxide hydrolase 2 (Mus musculus, UniProt P34914); experiment: biochemical
T1 sequence (P34914 whole entry): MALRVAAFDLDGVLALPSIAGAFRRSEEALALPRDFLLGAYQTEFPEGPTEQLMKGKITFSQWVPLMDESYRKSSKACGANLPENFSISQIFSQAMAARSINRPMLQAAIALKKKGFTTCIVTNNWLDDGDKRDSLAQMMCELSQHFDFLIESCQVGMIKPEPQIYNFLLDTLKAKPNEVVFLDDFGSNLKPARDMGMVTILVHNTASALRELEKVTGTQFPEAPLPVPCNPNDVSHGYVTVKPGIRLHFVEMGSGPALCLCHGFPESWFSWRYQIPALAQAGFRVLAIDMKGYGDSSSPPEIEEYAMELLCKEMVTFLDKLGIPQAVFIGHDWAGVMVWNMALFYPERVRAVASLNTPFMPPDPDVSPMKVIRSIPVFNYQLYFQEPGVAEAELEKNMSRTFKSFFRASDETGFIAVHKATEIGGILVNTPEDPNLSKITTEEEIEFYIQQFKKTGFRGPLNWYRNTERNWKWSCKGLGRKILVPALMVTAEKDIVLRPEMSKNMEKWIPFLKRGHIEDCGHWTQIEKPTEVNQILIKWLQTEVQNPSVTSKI
Description: Inhibition of C57BL/6J mouse brain sEH using 14,15-EET as substrate preincubated for 15 mins followed by substrate addition by HPLC-MS analysis

Mus musculus [4] = experiment: Anti-inflammatory activity in BALB/c mouse model of carrageenan-induced paw edema assessed as inhibition of paw swelling at 10 mg/kg, po measured up to 6 hrs relative to control; format: functional
RAW264.7 [5] = experiment: Effect on IL-10 level in LPS-indeced mouse RAW264.7 cells at 10 uM preincubated for 1 hr followed by LPS addition measured after 24 hrs by ELISA; format: functional, cell-based
Mus musculus [6] = experiment: Anti-inflammatory activity in BALB/c mouse model of carrageenan-induced paw edema assessed as decrease in plasma 14,15-DHET levels at 10 mg/kg, po measured after 6 hrs; format: functional, organism-based
RAW264.7 [7] = experiment: Anti-inflammatory activity in LPS-indeced mouse RAW264.7 cells assessed as reduction in IL-1beta level at 10 uM preincubated for 1 hr followed by LPS addition measured after 24 hrs by ELISA; format: functional, cell-based
Mus musculus [8] = experiment: Anti-inflammatory activity in BALB/c mouse model of carrageenan-induced paw edema assessed as increase in ratio of 8,9-EET to DHET plasma levels at 10 mg/kg, po measured after 6 hrs; format: functional, organism-based
RAW264.7 [9] = experiment: Anti-inflammatory activity in LPS-indeced mouse RAW264.7 cells assessed as reduction in IL-6 level at 10 uM preincubated for 1 hr followed by LPS addition measured after 24 hrs by ELISA; format: functional, cell-based
RAW264.7 [10] = experiment: Effect on IL-6 level in LPS-indeced mouse RAW264.7 cells at 10 uM preincubated for 1 hr followed by LPS addition measured after 24 hrs by ELISA; format: functional, cell-based
Mus musculus [11] = experiment: Effect on liver sEH protein content in BALB/c mouse model of carrageenan-induced paw edema at 1 to 10 mg/kg, po measured after 6 hrs; format: functional, organism-based; details: dose 1-10 mg/kg
RAW264.7 [12] = experiment: Upregulation of IL-10 level in LPS-indeced mouse RAW264.7 cells at 10 uM preincubated for 1 hr followed by LPS addition measured after 24 hrs by ELISA; format: functional, cell-based
Mus musculus [13] = experiment: Anti-inflammatory activity in BALB/c mouse model of carrageenan-induced paw edema assessed as decrease in plasma 11,12-DHET levels at 10 mg/kg, po measured after 6 hrs; format: functional, organism-based
Mus musculus [14] = experiment: Anti-inflammatory activity in BALB/c mouse model of carrageenan-induced paw edema assessed as increase in ratio of 14,15-EET to DHET plasma levels at 10 mg/kg, po measured after 6 hrs; format: functional, organism-based
Mus musculus [15] = experiment: Effect on liver sEH enzyme activity in BALB/c mouse model of carrageenan-induced paw edema at 1 to 10 mg/kg, po measured after 6 hrs; format: functional, organism-based; details: dose 1-10 mg/kg
Mus musculus [16] = experiment: Anti-inflammatory activity in BALB/c mouse model of carrageenan-induced paw edema assessed as increase in ratio of 11,12-EET to DHET plasma levels at 10 mg/kg, po measured after 6 hrs; format: functional, organism-based
Mus musculus [17] = experiment: Anti-inflammatory activity in BALB/c mouse model of carrageenan-induced paw edema assessed as decrease in plasma 8,9-DHET levels at 10 mg/kg, po measured after 6 hrs; format: functional, organism-based
RAW264.7 [18] = experiment: Anti-inflammatory activity in LPS-indeced mouse RAW264.7 cells assessed as reduction in TNF-alpha level at 10 uM preincubated for 1 hr followed by LPS addition measured after 24 hrs by ELISA; format: functional, cell-based; details: time 25.0 hrs

SMILES | inhibition in vivo at 20 mg/kg (Mus musculus [1]) | inhibition in vivo at 20 mg/kg (Mus musculus [2]) | IC50 [3] | Imax (Mus musculus [4]) | Activity (RAW264.7 [5]) | Activity (Mus musculus [6]) | Activity (RAW264.7 [7]) | Activity (Mus musculus [8]) | Activity (RAW264.7 [9]) | Activity (RAW264.7 [10]) | Activity (Mus musculus [11]) | Activity (RAW264.7 [12]) | Activity (Mus musculus [13]) | Activity (Mus musculus [14]) | Activity (Mus musculus [15]) | Activity (Mus musculus [16]) | Activity (Mus musculus [17]) | Activity (RAW264.7 [18])
COc1cc(OC)c2c(c1)C1Cc3ccc(NC(=O)NCc4ccc(OC(F)(F)F)cc4)cc3CN1CC2 (stereo not drawn) | 38.5% | 24.7% | 1.44 nM | – | – | – | – | – | – | – | – | – | – | – | – | – | – | –
CC[C@H](C)C(=O)N1CCC(NC(=O)Nc2ccc(OC(F)(F)F)c(F)c2)CC1 | – | – | – | 30.6% | No effect | Active | Active | Active | Active | No effect | Active | Active | Active | Active | Active | Active | Active | Active
